Laboratory results reported in patent US10428106B2, “Phosphate replacement mRNA cap analogs” (ModernaTX, Inc., priority 2015, dated 2019).

Key:
eIF4E = target: T1, eIF4E (Homo sapiens, UniProt P06730); assay: Binding affinities to eIF4E using surface plasmon resonance (SPR)
T1 construct: HNAVIpeptTEVeIF4E 32-217(Biotinylated)
Protocol: General Outline of the Assay Procedure
A sensor chip SA (GE Healthcare) is docked into a Biacore 3000 instrument.
Compound concentration series are injected over the immobilized protein serially in increasing concentration. Interaction models are fitted globally to the experimental traces, enabling determination of Kd or KD (binding affinity; unit: M) and possibly kon (on-rate, calculated from the association phase; unit: M^−1s^−1) and koff (off-rate, calculated from the dissociation phase; unit: s^−1).
Preparation of Sensor Chip
A sensor chip (SAD5001 or SA) was docked into a Biacore 3000 instrument, washed with 50 mM NaOH, 1M NaCl. Protein eIF4E was diluted in running buffer (50 mM HEPES, 150 mM KCl, 10 mM MgCl2, 2 mM TCEP) to ˜1 μM. The diluted protein solution was injected for 300-600 seconds. Typical capture levels were 5000-6000 RU.
Test compounds were solubilized in ddH2O or DMSO to 10 mM. 100 μM stocks were prepared by 100-fold dilution in running buffer (50 mM HEPES, 150 mM KCl, 10 mM MgCl2). Assay was run with or without 1% DMSO.
Data were analyzed in GeneData. Curve fit was accepted or rejected by looking at the resulting sensorgrams and steady state fits.
Assay has been validated using running buffer with and without DMSO.

[1] = system: human primary hepatocytes; assay: Cell-based expression assay in human primary hepatocytes; details: normalized expression level of mRNA carrying the cap, 5-methoxy uridine; Compound 7 mRNA Cap0-like, others Cap1-like
HeLa Lysate [2] = assay: Cell free translation assay of hEPO mRNAs carrying different caps; type: biochemical; details: hEPO levels after 3 hours; mRNA carrying the cap; modRNA with 5-methoxy uridine
CD-1 mice = assay: In vivo expression assay of hEPO mRNA in MC3-based LNP; details: i.v. bolus 0.05 mg/kg, 6 h after injection, mRNA carrying the cap, 5-methoxy uridine
Protocol: mRNAs encoding hEPO are synthesized according to the method described in Example 2 above, co-transcriptionally incorporating cap analogs of the disclosure. […] A MC3-based lipid nanoparticle (LNP) formulation of the synthesized mRNA is produced, and is intravenously administered to CD-1 mice (n=3) at a bolus dose of 0.05 mg/kg. The level of hEPO was tested at 6 h, 24 h, or 48 h after injection.

HeLa Lysate [3] = assay: Cap competition assay in kinetic cell free in vitro translation (free cap analogs vs Cap1-tipped eGFP modRNA); type: biochemical; details: free cap analog 0-100 uM; modRNA with 1-methyl-pseudouridine and 5-methyl cytidine; fluorescence plateau
Protocol: The in vitro translation assay was conducted with the HeLa 1-step coupled IVT kit (ThermoFisher Scientific, Waltham, Mass.) according to the manufacturer's instructions to assess performance of new cap analogs as free compounds or as an integral part of capped mRNA. Cap analogs with affinity to eIF4E protein may reduce protein synthesis rate in cell-free translation. Further, RNAs containing such cap analogs (“Cap-modRNA”) show different potency of protein synthesis in cell-free translation.
The modified RNAs (“modRNAs”) of eGFP and mCitrine-degron, harboring chemical modifications on either the CAP structures, selected ribose units and/or the bases, were diluted in sterile nuclease-free water to a final amount of 500 ng in 5 uL. […] The in vitro translation reaction was done in a standard 96-well round bottom plate (Corning, Corning, N.Y.), covered with an self-adhesive fluorescence-compatible seal (BioRad, Hercules, Calif.) at 30° C. inside the plate reader Cytation 3 (BioTek, Winooski, Vt.).
The fluorescent signal per reaction increased over time and is considered proportional to the occurring protein synthesis. Each cell-free translation reaction was monitored for 120-180 min with the following settings: eGFP protein—ex. […] The height of the reading head was set to 1 mm above the plate and a reading speed of one per sample every 17 seconds. […]

[4] = residence time as listed in Table 5

T1 sequence (P06730 32-217): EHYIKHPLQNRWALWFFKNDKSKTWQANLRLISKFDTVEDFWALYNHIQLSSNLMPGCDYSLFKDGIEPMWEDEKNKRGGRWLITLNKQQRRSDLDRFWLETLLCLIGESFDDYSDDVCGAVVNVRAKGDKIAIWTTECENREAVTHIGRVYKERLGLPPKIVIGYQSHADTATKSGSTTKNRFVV

C[n+]1cn([C@@H]2O[C@H](COP(=O)([O-])OCCN(CCOP(=O)([O-])OC[C@H]3O[C@@H](n4c[n+](C)c5c(=O)[nH]c(N)nc54)[C@H](O)[C@@H]3O)C(=O)OC(C)(C)C)[C@@H](O)[C@H]2O)c2nc(N)[nH]c(=O)c21 [Compound 25]
Kd (eIF4E; SPR, Biacore 3000, captured biotinylated eIF4E, Table 3): 300 µM

CO[C@H]1[C@@H](O)[C@H](n2c[n+](C)c3c(=O)[nH]c(N)nc32)O[C@@H]1COP(=O)(O)OP(=O)(O)OP(=O)(O)OC[C@H]1O[C@@H](n2cnc3c(=O)[nH]c(N)nc32)[C@H](O)[C@@H]1O [ARCA]
h-primHeps norm to Capping and Cap1 [1]: 1.52
CFT (norm to conc. & capping & cap1) (HeLa Lysate [2]): 1.93
τ (eIF4E; [4]): 0.6 s
in vivo hEPO normalized to capping and Cap1 (CD-1 mice): 0.70

Cn1c[n+]([C@@H]2O[C@H](COP(=O)(O)OP(=O)([O-])OP(=O)(O)OC[C@H]3O[C@@H](n4cnc5c(=O)[nH]c(N)nc54)[C@H](O)[C@@H]3O)[C@@H](O)[C@H]2O)c2nc(N)[nH]c(=O)c21 [Cap0 (i.e., m7GpppG), m7GpppG]
IC50 (HeLa Lysate [3]): 36 µM
τ (eIF4E; residence time, inverse of koff, Table 3): 1.25 s

CO[C@@H]1[C@H](O)[C@@H](COP(=O)(O)OP(=O)(O)OP(=O)(O)OC[C@H]2O[C@@H]([n+]3cn(C)c4c(=O)[nH]c(N)nc43)[C@H](O)[C@@H]2O)O[C@H]1n1cnc2c(=O)[nH]c(N)nc21 [Cap1, m7GpppG(2′-Om)]
h-primHeps norm to Capping and Cap1 [1]: 1.00
CFT (norm to conc. & capping & cap1) (HeLa Lysate [2]): 1.00
τ (eIF4E; [4]): 1.3 s
in vivo hEPO normalized to capping and Cap1 (CD-1 mice): 1.00
